# Assay results from patent US10370647B2 (priority 2015, dated 2019).
# Legend:
# KFtx series = test: Paclitaxel resistance properties of the KFtx series (surviving cells, Cell Titer-Glo); format: cell-based; settings: Low and Empty Low (low UCA1 expression); PTx 0 to 500 nM, 48 hours
# Method: Paclitaxel resistance properties of the KFtx series comprising the cell line stably expressing UCA1 were compared. The KFtx series were seeded at a cell density of 6×10^3/well on a 96-well plate, and after the cells had been cultured at 37° C. for 12 hours, during which the cells were considered to adhere to the plate, the medium was exchanged with PTx-containing RPMI. The concentrations of PTx were set to be 0, 2, 5, 20, 50, 100, 200, and 500 nM. The cells were further cultured at 37° C. for 48 hours, and the number of surviving cells was then quantified using Cell Titer-Glo (Promega) and was then compared.
# Low cells = format: in vivo, BALB/cAJcl-nu/nu mice; settings: KF cell-derived tumors (Low group); 7 days after Paclitaxel 1 mg/ml/mouse
# KFtx cells = format: in vivo, BALB/cAJcl-nu/nu mice; settings: KFTx cell-derived tumors; 7 days after Paclitaxel 1 mg/ml/mouse
smiles,measurement,setting,value
"CC(=O)O[C@H]1C(=O)[C@@]2(C)[C@H]([C@H](OC(=O)c3ccccc3)[C@]3(O)C[C@H](OC(=O)[C@H](O)[C@@H](NC(=O)c4ccccc4)c4ccccc4)C(C)=C1C3(C)C)[C@]1(OC(C)=O)CO[C@@H]1C[C@@H]2O [PTx, Paclitaxel]",number of surviving cells,KFtx series,significantly decreased
same,tumors disappeared (Rluc imaging),Low cells,≥ 95%
same,tumors after administration of PTx (Rluc imaging),KFtx cells,remained
